{"source": "patent US5585367A", "about": "(priority 1990, dated 1996)", "key": {"[1]": {"system": "lymphocyte cellular lines", "assay": "Toxicity for human lymphocyte cellular lines", "format": "cell-based", "details": "even after 24 hours"}, "in vitro [2]": {"assay": "in vitro", "details": "human, molt-3 cells, % of dead cells"}, "[3]": {"system": "Molt-3 cells infected by HTLVIII-B"}, "[4]": {"system": "human blood cell glutathione", "details": "N. S. KOSOWER et al. (1969); cited from earlier work"}, "HIV-1 [5]": {"system": "HIV-1", "format": "cell-based"}, "in vitro [6]": {"assay": "in vitro", "details": "human, supt-1 cells"}, "[7]": {"system": "genes \"GAG\", \"LTR\" and \"ENV\" of the HIV-1 provirus", "assay": "Integration of viral genome into chromosomic DNA of Supt-1 cells (PCR)", "format": "cell-based", "details": "HIV-1 treated with 1/100 dilution", "description": "By means of a genetic amplification through a thermostable polymerase, the presence of genes \"GAG\", \"LTR\" and \"ENV\" of the HIV-1 provirus is evidenced. This method is called P.C.R. Polymerase chain Reaction) (Chin-Yih Ou et al., Sciences 239, 295-297, 1988).\nSaid method is applied for detecting HIV-1 provirus in the genome of Supt-1 cells inoculated with HIV-1 virus incubated with […] (dilution 1/100), as described in Example 8\nAmplified oligonucleotides, UV visible by means of ethidium bromide appear only in the tubes corresponding to an inoculation with HIV-1 viruses which were not treated with the active substance.\nOne proceeds as in Example 11(c). The search of genes \"GAG\", \"LTR\" and \"ENV\" has been made in cellular cultures inoculated with a virus incubated for 15 minutes with the active substance. This search is appeared as being negative, and thus it can be concluded that 1.1'-azobisformamide at the dosage of 35 μgr/ml protects the cells against infection by HIV-1.\nExamples 10c and 11c disclose a more accurate method than the ELISA test for examining whether the inoculated cells contain HIV-1 at the end of the assay, i.e., the PCR-Method."}, "HIV-1 [8]": {"system": "HIV-1", "format": "cell-based", "remark": "listed apart in the source"}, "[9]": {"system": "HIV strain of the patient", "assay": "Resistance of the patient's HIV strain (course of treatment; gene sequencing of viral RNA)", "details": "for genetic resistance of the patient's strain: mutations in codons 67, 70, 184, 215 and 219; for resistance, concomitant medication: patient of Example 27, DDI, then DDI and DDC"}, "wild HIV-1 strains": {"system": "wild HIV-1 strains", "assay": "Phenotypic resistance of wild HIV-1 strains", "format": "cell-based", "details": "strains marked * (Wild A, B, C, F, G)"}}, "note": "Like-named read-outs stand apart in the source and are kept apart here.", "data": [{"smiles": "CN(C)C(=O)N=NC(=O)N(C)C", "note": "[1.1'-azobisdimethylformamide]", "values": [{"measurement": "toxicity for human lymphocyte cellular lines", "setting": "[1]", "value": "no toxicity"}, {"measurement": "cytotoxicity at 1 min", "setting": "in vitro [2]", "value": 12.7, "unit": "%"}, {"measurement": "cytotoxicity at 10 min", "setting": "in vitro [2]", "value": 14, "unit": "%"}, {"measurement": "cytotoxicity at 0.5 h", "setting": "in vitro [2]", "value": 17.1, "unit": "%"}, {"measurement": "mortality of the infected cells", "setting": "[3]; after 30 minutes, even at dilution 1/3000", "value": "mortality of the infected cells is doubled"}, {"measurement": "Number of dead cells", "setting": "[3]; dilution 1/500, 1 min", "value": 9}, {"measurement": "Number of living cells", "setting": "[3]; dilution 1/500, 1 min", "value": 62}, {"measurement": "Number of dead cells", "setting": "[3]; dilution 1/500, 10 min", "value": 11}, {"measurement": "Number of living cells", "setting": "[3]; dilution 1/500, 10 min", "value": 67}, {"measurement": "Number of dead cells", "setting": "[3]; dilution 1/500, 30 min", "value": 12}, {"measurement": "Number of living cells", "setting": "[3]; dilution 1/500, 30 min", "value": 58}, {"measurement": "Number of dead cells", "setting": "[3]; dilution 1/1500, 30 min", "value": 15}, {"measurement": "Number of living cells", "setting": "[3]; dilution 1/1500, 30 min", "value": 70}, {"measurement": "Number of dead cells", "setting": "[3]; dilution 1/3000, 30 min", "value": 12}, {"measurement": "Number of living cells", "setting": "[3]; dilution 1/3000, 30 min", "value": 58}, {"measurement": "% of dead cells", "setting": "[3]; human, molt-3 cells, 0.5 h", "value": 17.6, "unit": "%"}, {"measurement": "intracellular oxidising action on human blood cell glutathione", "setting": "[4]", "value": "intracellular oxidising action on human blood cell glutathione"}, {"measurement": "cellular viability of Supt-1 cells", "setting": "Supt-1 cells", "value": "does not decrease the cellular viability"}, {"measurement": "toxicity against sound Supt-1 cells", "setting": "Supt-1 cells", "value": "no toxicity against sound Supt-1 cells"}, {"measurement": "toxicity for human Supt-1 cells", "setting": "Supt-1 cells", "value": "no toxicity"}, {"measurement": "cytopathogenic effect", "setting": "HIV-1 [5]", "value": "no cytopathogenic effect was observed"}, {"measurement": "cytotoxicity at 0 h", "setting": "in vitro [6]", "value": 26, "unit": "%"}, {"measurement": "cytotoxicity at 1 h", "setting": "in vitro [6]", "value": 24, "unit": "%"}, {"measurement": "cytotoxicity at 5 h", "setting": "in vitro [6]", "value": 28, "unit": "%"}, {"measurement": "HIV-1 provirus within Supt-1 cells", "setting": "[7]", "value": "totally absent"}, {"measurement": "effectiveness up to the 25th day", "setting": "HIV-1 [8]", "value": "effectiveness of this active substance is maintained"}, {"measurement": "infection of sound Supt-1 cells by treated HIV", "setting": "HIV-1 [8]", "value": "is not able to infect the sound Supt-1 cells"}, {"measurement": "protection of Supt-1 cells", "setting": "HIV-1 [8]", "value": "has this effect"}]}, {"smiles": "Nc1ccn([C@@H]2CS[C@H](CO)O2)c(=O)n1", "note": "[3TC]", "values": [{"measurement": "genetic resistance of the patient's strain", "setting": "[9]", "value": "genetically resistant"}]}, {"smiles": "Cc1cn([C@H]2C[C@H](N=[N+]=[N-])[C@@H](CO)O2)c(=O)[nH]c1=O", "note": "[AZT, 3'-azido-3'-desoxythymidine]", "values": [{"measurement": "phenotypic resistance to AZT", "setting": "wild HIV-1 strains", "value": "Phenotypically resistant"}, {"measurement": "genetic resistance of the patient's strain", "setting": "[9]", "value": "genetically resistant"}]}, {"smiles": "Nc1ccn([C@H]2CC[C@@H](CO)O2)c(=O)n1", "note": "[DDC]", "values": [{"measurement": "genetic resistance of the patient's strain", "setting": "[9]", "value": "genetically resistant"}, {"measurement": "resistance, concomitant medication", "setting": "[9]", "value": "stopped because of resistance"}]}, {"smiles": "O=c1[nH]cnc2c1ncn2[C@H]1CC[C@@H](CO)O1", "note": "[DDI]", "values": [{"measurement": "genetic resistance of the patient's strain", "setting": "[9]", "value": "genetically resistant"}, {"measurement": "resistance, concomitant medication", "setting": "[9]", "value": "stopped because of resistance"}]}]}
